Experiments:
Test in all cases: Postemergence Herbicidal Activity in Direct Seeded Rice
Type in all cases: in vivo
[1] = system: BRAPP: broadleaf signalgrass, Brachiaria platyphylla; settings: for Visual Growth Reduction (%) 21 Days After Application, BRAPP: postemergence, direct seeded rice; for GR50, BRAPP: Growth reduction of 50% of plant growth; for GR50, BRAPP / GR80, BRAPP: probit analysis; for GR80, BRAPP: Growth reduction of 80% of plant growth
Description: (§1) Seeds or nutlets of the desired test plant species were planted in a soil matrix prepared by mixing a loam soil (43 percent silt, 19 percent clay, and 38 percent sand, with a pH of about 8.1 and an organic matter content of about 1.5 percent) and river sand in an 80 to 20 ratio. The soil matrix was contained in plastic pots with a surface area of 139.7 cm^2. When required to ensure good germination and healthy plants, a fungicide treatment and/or other chemical or physical treatment was applied. The plants were grown for 10-17 days in a greenhouse with an approximate 14-h photoperiod which was maintained at about 29° C. during the day and 26° C. during the night. Nutrients and water were added on a regular basis and supplemental lighting was provided with overhead metal halide 1000-Watt lamps as necessary. The plants were employed for testing when they reached the second or third true leaf stage.
(§2) A weighed amount, determined by the highest rate to be tested, of each test compound was placed in 25 mL glass vials and dissolved in a volume of 97:3 v/v acetone-DMSO to obtain 12× stock solutions. […] The concentrated stock solutions were added to the spray solutions so that the final acetone and DMSO concentrations were 16.2% and 0.5%, respectively. Spray solutions were diluted to the appropriate final concentrations with the addition of 10 mL of an aqueous mixture of 1.5% (v/v) Agri-dex crop oil concentrate. The final spray solutions contained 1.25% (v/v) Agri-dex crop oil concentrate. Compound requirements are based upon a 12 mL application volume at a rate of 187 L/ha. Formulated compounds were applied to the plant material with an overhead Mandel track sprayer equipped with 8002E nozzles calibrated to deliver 187 L/ha over an application area of 0.503 square meters (m^2) at a spray height of 18 inches (43 cm) above average plant canopy height. Control plants were sprayed in the same manner with the solvent blank.
(§3) The treated plants and control plants were placed in a greenhouse as described above and watered by sub-irrigation to prevent wash-off of the test compounds. After 20-22 days, the condition of the test plants, compared with that of the untreated plants, was determined visually and scored on a scale of 0 to 100 percent where 0 corresponds to no injury and 100 corresponds to complete kill and presented as indicated in Table A.
(§4) By applying the well-accepted probit analysis as described by J. Berkson in Journal of the American Statistical Society, 48, 565 (1953) and by D. Finney in “Probit Analysis” Cambridge University Press (1952), herbicidal injury of a specific compound at various rates can be used to calculate GR20, GR50, GR80 and GR90 values, which are defined as growth reduction factors that correspond to the effective dose of herbicide required to provide plant growth reduction (GR) of 20 percent, 50 percent, 80 percent and 90 percent, respectively. Probit analysis was applied to data collected from multiple dose rates of individual compounds utilizing the procedures explained in the following examples. The analysis of those dose rates is captured in the following tables

[2] = system: CYPSS: sedge including small-flower flatsedge (Cyperus difformis), yellow nutsedge (Cyperus esculentus), rice flatsedge (Cyperus iria); settings: for Visual Growth Reduction (%) 21 Days After Application, CYPSS: postemergence, direct seeded rice; for GR50, CYPSS: Growth reduction of 50% of plant growth; for GR50, CYPSS / GR80, CYPSS: probit analysis; for GR80, CYPSS: Growth reduction of 80% of plant growth
Description: as §1, §2, §3, §4

[3] = system: ECHSS: including barnyardgrass, (Echinochloa crus-galli), junglerice, (Echinochloa colonum); settings: for Visual Growth Reduction (%) 21 Days After Application, ECHSS: postemergence, direct seeded rice; for GR50, ECHSS: Growth reduction of 50% of plant growth; for GR50, ECHSS / GR80, ECHSS: probit analysis; for GR80, ECHSS: Growth reduction of 80% of plant growth
Description: as §1, §2, §3, §4

[4] = system: LEFSS: sprangletop including Chinese sprangletop (Leptochloa chinensis), green sprangletop (Leptochloa dubia); settings: for Visual Growth Reduction (%) 21 Days After Application, LEFSS: postemergence, direct seeded rice; for GR50, LEFSS: Growth reduction of 50% of plant growth; for GR50, LEFSS / GR80, LEFSS: probit analysis; for GR80, LEFSS: Growth reduction of 80% of plant growth
Description: as §1, §2, §3, §4

ORYSS: Oryza sativa = settings: for Visual Growth Reduction (%) 21 Days After Application, ORYSS: postemergence, direct seeded rice; for GR20, ORYSS: Growth reduction of 20% of plant growth, probit analysis
Description: as §1, §2, §3, §4

[5] = system: SCPJU: Japanese bulrush, Schoenoplectus juncoides; settings: for Visual Growth Reduction (%) 21 Days After Application, SCPJU: postemergence, direct seeded rice; for GR50, SCPJU: Growth reduction of 50% of plant growth; for GR50, SCPJU / GR80, SCPJU: probit analysis; for GR80, SCPJU: Growth reduction of 80% of plant growth
Description: as §1, §2, §3, §4

[6] = system: SEBEX: hemp sesbania, Sesbania exaltata; settings: for Visual Growth Reduction (%) 21 Days After Application, SEBEX: postemergence, direct seeded rice; for GR50, SEBEX: Growth reduction of 50% of plant growth; for GR50, SEBEX / GR80, SEBEX: probit analysis; for GR80, SEBEX: Growth reduction of 80% of plant growth
Description: as §1, §2, §3, §4

| SMILES | Visual Growth Reduction (%) 21 Days After Application, BRAPP ([1]; 35 g ai/ha) | Visual Growth Reduction (%) 21 Days After Application, BRAPP ([1]; 70 g ai/ha) | GR50, BRAPP [1] | GR80, BRAPP [1] | Visual Growth Reduction (%) 21 Days After Application, CYPSS ([2]; 35 g ai/ha) | Visual Growth Reduction (%) 21 Days After Application, CYPSS ([2]; 70 g ai/ha) | GR50, CYPSS [2] | GR80, CYPSS [2] | Visual Growth Reduction (%) 21 Days After Application, ECHSS ([3]; 35 g ai/ha) | Visual Growth Reduction (%) 21 Days After Application, ECHSS ([3]; 70 g ai/ha) | GR50, ECHSS [3] | GR80, ECHSS [3] | Visual Growth Reduction (%) 21 Days After Application, LEFSS ([4]; 35 g ai/ha) | Visual Growth Reduction (%) 21 Days After Application, LEFSS ([4]; 70 g ai/ha) | GR50, LEFSS [4] | GR80, LEFSS [4] | Visual Growth Reduction (%) 21 Days After Application, ORYSS (ORYSS: Oryza sativa; 35 g ai/ha) | Visual Growth Reduction (%) 21 Days After Application, ORYSS (ORYSS: Oryza sativa; 70 g ai/ha) | GR20, ORYSS (ORYSS: Oryza sativa) | GR50, SCPJU [5] | further results |
| --- | --- | --- | --- | --- | --- | --- | --- | --- | --- | --- | --- | --- | --- | --- | --- | --- | --- | --- | --- | --- | --- |
| COC(=O)c1nc(-c2ccc(C(F)(F)F)nc2)c(C)c(N)c1Cl [Compound 32] | B (85-94) | B (85-94) | 14 g ai/ha | 35 g ai/ha | A (95-100) | A (95-100) | 1 g ai/ha | 2 g ai/ha | B (85-94) | A (95-100) | 21 g ai/ha | 35 g ai/ha | F (30-44) | E (45-59) | 59 g ai/ha | 133 g ai/ha | G (0-29) | F (30-44) | 36 g ai/ha | <17.5 g ai/ha | Visual Growth Reduction (%) 21 Days After Application, SCPJU ([5]; 35 g ai/ha): A (95-100); Visual Growth Reduction (%) 21 Days After Application, SCPJU ([5]; 70 g ai/ha): A (95-100); GR80, SCPJU [5]: <17.5 g ai/ha; Visual Growth Reduction (%) 21 Days After Application, SEBEX ([6]; 35 g ai/ha): A (95-100); Visual Growth Reduction (%) 21 Days After Application, SEBEX ([6]; 70 g ai/ha): A (95-100); GR50, SEBEX [6]: 3 g ai/ha; GR80, SEBEX [6]: 9 g ai/ha |
| COC(=O)c1nc(-c2ccc(Cl)nc2F)c(F)c(N)c1Cl [Compound 45] | G (0-29) | G (0-29) | >140 g ai/ha | >140 g ai/ha | B (85-94) | A (95-100) | 3 g ai/ha | 7 g ai/ha | F (30-44) | B (85-94) | 16 g ai/ha | >140 g ai/ha | G (0-29) | D (60-74) | >140 g ai/ha | >140 g ai/ha | G (0-29) | G (0-29) | >140 g ai/ha | 1 g ai/ha | GR80, SCPJU [5]: 1 g ai/ha; Visual Growth Reduction (%) 21 Days After Application, SEBEX ([6]; 35 g ai/ha): A (95-100); Visual Growth Reduction (%) 21 Days After Application, SEBEX ([6]; 70 g ai/ha): A (95-100); GR50, SEBEX [6]: 1 g ai/ha; GR80, SEBEX [6]: 2 g ai/ha |
| Nc1c(Cl)c(C(=O)O)nc(-c2ccc(C(F)(F)F)nc2)c1Cl [Compound 33] | A (95-100) | A (95-100) | 3 g ai/ha | 11 g ai/ha | A (95-100) | A (95-100) | 4 g ai/ha | 7 g ai/ha | C (75-84) | A (95-100) | 1 g ai/ha | 1 g ai/ha | E (45-59) | C (75-84) | 30 g ai/ha | 77 g ai/ha | D (60-74) | C (75-84) | 8 g ai/ha | <17.5 g ai/ha | Visual Growth Reduction (%) 21 Days After Application, SCPJU ([5]; 35 g ai/ha): A (95-100); Visual Growth Reduction (%) 21 Days After Application, SCPJU ([5]; 70 g ai/ha): A (95-100); GR80, SCPJU [5]: <17.5 g ai/ha; Visual Growth Reduction (%) 21 Days After Application, SEBEX ([6]; 35 g ai/ha): A (95-100); Visual Growth Reduction (%) 21 Days After Application, SEBEX ([6]; 70 g ai/ha): A (95-100); GR50, SEBEX [6]: 1 g ai/ha; GR80, SEBEX [6]: 1 g ai/ha |
